Results taken from ChEMBL document CHEMBL1759866, “Discovery of 2,4-bis-arylamino-1,3-pyrimidines as insulin-like growth factor-1 receptor (IGF-1R) inhibitors” (Bioorg Med Chem Lett, 2011).

Assays:
Rattus norvegicus = test: In vivo clearance in Sprague-Dawley rat
[1] = Cmax in tumor of CD1 mouse Calu6 tumor xenograft model at 100 mg/kg, po administered twice daily as suspension in 1% Tween 80 and 1% HPMC in water; assay type: ADME, organism-based, Neoplasm; design: dose 100 mg/kg, route oral
[2] = Half life in Sprague-Dawley rat at 1 mg/kg, iv administered as solution in DSMO and 5 mg/kg, po administered as suspension in 1% Tween 80 and 1% HPMC in water after 12 to 24 hrs by LC-MS analysis; assay type: ADME, organism-based; conditions: in vivo
[3] = Oral bioavailability in CD1 mouse Calu6 tumor xenograft model at 5 mg/kg administered as suspension in 20% captisol in PBS; assay type: ADME, organism-based; conditions: in vivo
[4] = Cmax in CD1 mouse Calu6 tumor xenograft model at 100 mg/kg, po administered twice daily as suspension in 1% Tween 80 and 1% HPMC in water; assay type: ADME, organism-based; design: dose 100 mg/kg, route oral; conditions: in vivo
[5] = AUC in tumor of CD1 mouse Calu6 tumor xenograft model at 100 mg/kg, po administered twice daily as suspension in 1% Tween 80 and 1% HPMC in water; assay type: ADME, organism-based, Neoplasm; design: dose 100 mg/kg, route oral
in vivo [6] = conditions: CD1, mouse, tumor and plasma, po, 30 mg/kg
[7] = Clearance in Sprague-Dawley rat at 1 mg/kg, iv administered as solution in DSMO and 5 mg/kg, po administered as suspension in 1% Tween 80 and 1% HPMC in water after 12 to 24 hrs by LC-MS analysis; assay type: ADME, organism-based; conditions: in vivo
[8] = Oral bioavailability in Sprague-Dawley rat at 5 mg/kg administered as suspension in 1% Tween 80 and 1% HPMC in water after 12 to 24 hrs by LC-MS analysis; assay type: ADME, organism-based; conditions: in vivo
[9] = Volume of distribution at steady state in CD1 mouse Calu6 tumor xenograft model at 1 mg/kg, iv administered as solution in DMSO and 5 mg/kg, po administered as suspension in 20% captisol in PBS; assay type: ADME, organism-based; conditions: in vivo, read-out: Vdss
[10] = Clearance in CD1 mouse Calu6 tumor xenograft model at 1 mg/kg, iv administered as solution in DMSO and 5 mg/kg, po administered as suspension in 20% captisol in PBS; assay type: ADME, organism-based; conditions: in vivo
[11] = Half life in CD1 mouse Calu6 tumor xenograft model at 1 mg/kg, iv administered as solution in DMSO and 5 mg/kg, po administered as suspension in 20% captisol in PBS; assay type: ADME, organism-based; conditions: in vivo
[12] = AUC in tumor of CD1 mouse Calu6 tumor xenograft model at 30 mg/kg, po administered twice daily as suspension in 1% Tween 80 and 1% HPMC in water; assay type: ADME, organism-based, Neoplasm; design: dose 30 mg/kg, route oral
[13] = Volume of distribution at steady state in Sprague-Dawley rat at 1 mg/kg, iv administered as solution in DSMO and 5 mg/kg, po administered as suspension in 1% Tween 80 and 1% HPMC in water after 12 to 24 hrs by LC-MS analysis; assay type: ADME, organism-based; conditions: in vivo, read-out: Vdss
in vivo [14] = conditions: CD1, mouse, tumor and plasma, po, 100 mg/kg
[15] = Cmax in CD1 mouse Calu6 tumor xenograft model at 30 mg/kg, po administered twice daily as suspension in 1% Tween 80 and 1% HPMC in water; assay type: ADME, organism-based; design: dose 30 mg/kg, route oral; conditions: in vivo
[16] = Cmax in tumor of CD1 mouse Calu6 tumor xenograft model at 30 mg/kg, po administered twice daily as suspension in 1% Tween 80 and 1% HPMC in water; assay type: ADME, organism-based, Neoplasm; design: dose 30 mg/kg, route oral
[17] = Cmax in tumor of CD1 mouse Calu6 tumor xenograft model at 100 mg/kg, po administered twice daily as suspension in 20% captisol in PBS of pH 3.5; assay type: ADME, organism-based, Neoplasm; design: dose 100 mg/kg, route oral
[18] = Cmax in tumor of CD1 mouse Calu6 tumor xenograft model at 30 mg/kg, po administered twice daily as suspension in 20% captisol in PBS of pH 3.5; assay type: ADME, organism-based, Neoplasm; design: dose 30 mg/kg, route oral
[19] = Cmax in CD1 mouse Calu6 tumor xenograft model at 30 mg/kg, po administered twice daily as suspension in 20% captisol in PBS of pH 3.5; assay type: ADME, organism-based; design: dose 30 mg/kg, route oral; conditions: in vivo
[20] = Clearance in Sprague-Dawley rat at 2 mg/kg, iv administered as solution in DSMO and 5 mg/kg, po administered as suspension in 1% Tween 80 and 1% HPMC in water after 12 to 24 hrs by LC-MS analysis; assay type: ADME, organism-based; conditions: in vivo
[21] = Volume of distribution at steady state in Sprague-Dawley rat at 2 mg/kg, iv administered as solution in DSMO and 5 mg/kg, po administered as suspension in 1% Tween 80 and 1% HPMC in water after 12 to 24 hrs by LC-MS analysis; assay type: ADME, organism-based; conditions: in vivo, read-out: Vdss
[22] = AUC in tumor of CD1 mouse Calu6 tumor xenograft model at 30 mg/kg, po administered twice daily as suspension in 20% captisol in PBS of pH 3.5; assay type: ADME, organism-based, Neoplasm; design: dose 30 mg/kg, route oral
in vivo [23] = conditions: CD1, mouse, tumor and plasma, po, 30 mg/kg, pH 3.5
[24] = Half life in CD1 mouse Calu6 tumor xenograft model at 12 mg/kg, iv administered as solution in aqueous propylene glycol and 30 mg/kg, po administered as suspension in 20% captisol in PBS of pH 5.73; assay type: ADME, organism-based; conditions: in vivo
[25] = Volume of distribution at steady state in CD1 mouse Calu6 tumor xenograft model at 12 mg/kg, iv administered as solution in aqueous propylene glycol and 30 mg/kg, po administered as suspension in 20% captisol in PBS of pH 5.73; assay type: ADME, organism-based; conditions: in vivo, read-out: Vdss
[26] = Clearance in CD1 mouse Calu6 tumor xenograft model at 12 mg/kg, iv administered as solution in aqueous propylene glycol and 30 mg/kg, po administered as suspension in 20% captisol in PBS of pH 5.73; assay type: ADME, organism-based; conditions: in vivo
[27] = Cmax in CD1 mouse Calu6 tumor xenograft model at 100 mg/kg, po administered twice daily as suspension in 20% captisol in PBS of pH 3.5; assay type: ADME, organism-based; design: dose 100 mg/kg, route oral; conditions: in vivo
in vivo [28] = conditions: CD1, mouse, tumor and plasma, po, 100 mg/kg, pH 3.5
[29] = Half life in Sprague-Dawley rat at 2 mg/kg, iv administered as solution in DSMO and 5 mg/kg, po administered as suspension in 1% Tween 80 and 1% HPMC in water after 12 to 24 hrs by LC-MS analysis; assay type: ADME, organism-based; conditions: in vivo
[30] = AUC in tumor of CD1 mouse Calu6 tumor xenograft model at 100 mg/kg, po administered twice daily as suspension in 20% captisol in PBS of pH 3.5; assay type: ADME, organism-based, Neoplasm; design: dose 100 mg/kg, route oral

Work on `COc1ccc(Nc2nccc(Nc3cnc4ccccc4c3)n2)cc1Cl` yielded a CL (Rattus norvegicus) of 48.3 mL/min/kg.

`COc1cc(Nc2nccc(Nc3ccc4[nH]ncc4c3)n2)cc(OC)c1OC` showed a CL (Rattus norvegicus) of 40 mL/min/kg.

`COc1cc(Nc2nccc(Nc3cnc4ccccc4c3)n2)ccc1OCCCN1CCCCC1` gave a CL (Rattus norvegicus) of 31.7 mL/min/kg.

Work on `COc1cc(Nc2nccc(Nc3cnc4ccccc4c3)n2)cc(OC)c1OC` yielded a Cmax [1] of 2720 nM, a half-life [2] of 1.7 h and a bioavailability [3] of 63%. It also gave a Cmax [4] of 13400 nM, an AUC [5] of 5.17 µg·h/mL and a Kp (in vivo [6]) of 0.129. For the same molecule, the clearance [7] was 6.67 mL/min/kg, the bioavailability [8] was 33% and the Vd [9] was 0.3 L/kg. For the same molecule, the clearance [10] was 26.7 mL/min/kg, the half-life [11] was 1.7 h and the AUC [12] was 0.989 µg·h/mL. It also gave a Vd [13] of 0.2 L/kg, a Kp (in vivo [14]) of 0.18 and a Cmax [15] of 5340 nM. For the same molecule, the Cmax [16] was 525 nM.

With `COc1cc(Nc2nccc(Nc3cnc4ccccc4c3)n2)ccc1N1CCOCC1` the CL (Rattus norvegicus) was 48.3 mL/min/kg.

With `c1ccc2ncc(Nc3ccnc(Nc4ccc(OCCCN5CCCCC5)cc4)n3)cc2c1` the Cmax [17] was 143000 nM, the Cmax [18] was 1360 nM and the Cmax [19] was 180 nM. For the same molecule, the clearance [20] was 10 mL/min/kg, the Vd [21] was 9.5 L/kg and the AUC [22] was 13.3 µg·h/mL. The Kp (in vivo [23]) was 11.6, the bioavailability [8] was 9% and the half-life [24] was 5.3 h. The Vd [25] was 28.1 L/kg, the clearance [26] was 98.3 mL/min/kg and the Cmax [27] was 2220 nM. The Kp (in vivo [28]) was 81.9, the half-life [29] was 12.1 h and the AUC [30] was 1120 µg·h/mL.

`COc1cc(Nc2nccc(Nc3cc4ccccc4cn3)n2)cc(OC)c1OC` gave a CL (Rattus norvegicus) of 40 mL/min/kg.

`COc1cc(Nc2nccc(Nc3ccc4ccccc4c3)n2)cc(OC)c1OC` gave a CL (Rattus norvegicus) of 40 mL/min/kg.

Work on `COc1cc(Nc2nccc(Nc3cnc4ccccc4c3)n2)cc(OC)c1` yielded a CL (Rattus norvegicus) of 48.3 mL/min/kg.

`COc1cc(Nc2nccc(Nc3ccc4ncccc4c3)n2)cc(OC)c1OC` gave a half-life [2] of 1.3 h, a bioavailability [3] of 56% and a clearance [7] of 20 mL/min/kg. For the same molecule, the bioavailability [8] was 16%, the Vd [9] was 1.8 L/kg and the clearance [10] was 107 mL/min/kg. The half-life [11] was 2.3 h and the Vd [13] was 1.1 L/kg.
